Source: patent US20160345827A1, “TWO-PHOTON MICROSCOPY IMAGING RETINA CELL DAMAGE” (POLGENIX, INC., priority 2014, published 2016)
Entries after “also recorded” stand apart in the source; their conditions may differ. Like-named read-outs stand apart in the source and are kept apart here.

Assays:
Abca4^−/−Rdh8^−/− mice = experiment: light-induced retinal degeneration in Abca4^−/−Rdh8^−/− mice, TPM and histology at day 7; conditions: for light-induced retinal degeneration (retinal histology): Ret-NH2 1 mg per mouse oral gavage 16 h before, or Apo 1 mg/mouse i.p. 30 min before 10,000 lx light for 60 min, day 7
retinoid cycle = retinoid cycle inhibition before light exposure, LC/MS metabolic profile of retina; format: in vivo; conditions: pretreatment of Abca4^−/−Rdh8^−/− mice several hours before light exposure
Method: At day 3 after light exposure, mouse retinas were dissected and homogenized in 0.3 mL of ice-cold acetonitrile. Samples were vortexed for 30 s followed by centrifugation for 15 min at 16,000×g. Clear supernatants were collected and used directly for LC/MS analyses. Each retinal extract was injected onto a reverse-phase C18 Phenomenex HPLC column (250×4.60 mm; 5 μm) preequilibrated with 5% acetonitrile in water. […] Total ion chromatograms were analyzed with XCMS software available online at the Scripps Center for Metabolomics.
Fluorophores responsible for AF in the retina could be an indicator of global changes in the metabolic profile of this tissue. To evaluate and quantify these changes as well as determine whether they depend on a functional retinoid cycle, we used both genetically altered (Lrat^−/−) and pharmacologically treated (retinylamine) mice with metabolic profiles that were compared with light-exposed and dark-adapted Abca4^−/−Rdh8^−/− mice by using a LC/MS approach. […] To investigate the origin of these light-induced alterations, we first analyzed the metabolic profile of retinal samples isolated from light-exposed lecithin:retinol acyltransferase (LRAT)-deficient mice that cannot produce visual chromophore. […]

[1] = system: RPE of Abca4^−/−Rdh8^−/− (DKO) mice; experiment: two-photon trans-pupil imaging of fluorescent granules in RPE after bright light; conditions: 2 mg Ret-NH2 gavage 13 to 16 h prior to 10,000 lux for 60 min; ex vivo imaging 7 and 14 days after light
From the text: All animal procedures and experiments were approved by the Institutional Animal Care and Use Committee at Case Western Reserve University and conformed to recommendations of both the American Veterinary Medical Association Panel on Euthanasia and the Association for Research in Vision and Ophthalmology. B6(Cg)-Tyrc-2J/J mice were purchased from The Jackson Laboratory. Abca4^−/−Rdh8^−/− (DKO) and Rpe65^−/− mice were generated and genotyped as previously described. Human opsinGFP fusion, knockin hrhoG/hrhoG mice, expressing human rhodopsinGFP in photoreceptor outer segments were kindly provided by Dr. John H. Wilson (Baylor College of Medicine). […]
After treatment with Ret-NH2 the content of fluorescent retinyl esters increases in the eye as reported previously. […] For quantification of the impact of drug treatment, the same detector settings were used for mice that were treated and not treated with Ret-NH2. […]
The tunable, 690-1050 nm, Chameleon VisionS generated 75 fs laser pulses at 80 MHz pulse repetition frequency. […] In twophoton imaging, the excitation matters most because the emission fluorescence is generated only in the focal spot; therefore, it is critical to achieve a tightly focused excitation beam. […]

[2] = system: Abca4^−/−Rdh8^−/− (Dko) retinal cultures; experiment: ex vivo Dko retinal cultures incubated with atRAL (morphology, LDH); format: cell-based; conditions: 6 h at 37° C; for effect on atRAL-induced cell death rate (LDH assay): Ret-NH2 30 μM or Apo 300 μM together with 30 μM atRAL
Method: FIGS. 11(A-B) illustrate images showing retinal degeneration is induced by atRAL in ex vivo Dko retinal cultures. Retinas were removed from the eyecups of 4-wk-old Abca4^−/−Rdh8^−/− (Dko) mice and cultured for 16 h at 37° C. Retinas were then incubated further with/without 30 μM of atRAL in the presence/absence of experimental drugs for 6 h at 37° C. Vehicle (DMSO), retinylamine (Ret-NH2) at 30 μM, or apocynin (Apo) at 300 μM was applied together with atRAL. (A) Retinal morphology was examined after incubation with atRAL. […] Bars indicate SD (n=3). *P<0.05.
(§1) Eyes were enucleated, washed with a penicillin-streptomycin solution (Sigma), and rinsed with Hank's balanced salt solution (HyClone). Prepared mouse eyecups were flattened by creating retinal flaps. Flattened retinas were transferred onto filter paper and the retina was gently peeled off from the RPE/choroid. All these procedures were performed under a surgical microscope. Each retina on filter paper was placed into a well of a 12-well plate filled with 0.5 mL of DMEM (HyClone) with 10% FBS and incubated for 16 h at 37° C. Retinas then were washed twice with 0.5 mL of fresh DMEM containing 10% FBS and finally incubated again with/without 30 μM of atRAL for 6 h at 37° C. A lactate dehydrogenase (LDH) assay was performed to determine cellular death rates with a LDH activity assay kit (BioVision). The percentage of cytotoxicity was calculated as [(a retina with atRAL—a retina without atRAL)/(lysis control—a retina without atRAL)]×100.

[3] = system: retinal explant tissue cultures; format: cell-based; conditions: 6 h at 37° C, WT retinas; for protection of retinal morphology against atRAL-induced damage: Ret-NH2 30 μM or apocynin 300 μM together with 30 μM atRAL; for prevention of atRAL-induced photoreceptor apoptosis (TUNEL staining): retinylamine 30 μM or apocynin 300 μM together with 30 μM atRAL
Method: FIGS. 6(A-B) illustrate images and a plot showing retinal degeneration is induced by atRAL in ex vivo retinal cultures. Retinas were removed from the eyecups of 4-wk-old C57BL/6J mice and cultured for 16 h at 37° C. Then retinas were incubated further with/without 30 μM of atRAL in the presence/absence of experimental drugs for 6 h at 37° C. Vehicle (DMSO), retinylamine (Ret-NH2) at 30 μM, or apocynin (Apo) at 300 μM was applied, together with atRAL. (A) Retinal morphology was examined after incubation with atRAL and with and without drugs. […] (B) TUNEL staining was performed with the ApoTag Peroxidase in Situ Apoptosis Detection Kit. Counter nuclear staining was accomplished with methyl green. […] (D) Retinas were removed from eyecups of 4-wk-old C57BL/6J mice and cultured with or without 30 μM of atRAL for 24 h at 37° C. After incubation, retinas were washed twice with PBS and then examined by TPM. Spectra from photoreceptor outer segments are shown (Left) along with representative magnified images (Right). Spectra from retinas cultured with atRAL featured a broad maximum absorption at 600 nm.
as §1
The primary cause of acute retinal degeneration after bright light exposure in Abca4^−/−Rdh8^−/− mice is the delayed clearance of atRAL from photoreceptors. […] Thus, to examine whether retinal tissue lacking RPE cells can display degenerative changes similar to those observed in in vivo, we performed ex vivo culture experiments with retinal explants coincubated with atRAL. Neural retinas were dissected from eyes of 4-wk-old WT mice, and incubated with 30 μM of atRAL in the presence of control vehicle, 30 μM of retinylamine or 300 μM of apocynin for 6 h at 37° C. […] Cell death rates were calculated by measuring lactate dehydrogenase released into tissue culture supernatants from dying cells.

[4] = after treatment with Ret-NH2; diminished 7 days after treatment; cited from earlier work
[5] = system: RPE of wild type (WT) mice; experiment: two-photon imaging of retinosomes in WT mouse RPE; format: in vivo; conditions: WT mice pre-treated with Ret-NH2, white light 5,000 lux before imaging, laser power reduced by 17%
Method: To enhance the visibility of retinosomes, WT mice without any drug treatment or treated with Ret-NH2 were exposed to 5,000 lux of white light for 5-30 min, 1 to 3 h before imaging.
To assess the capabilities of our system to characterize the RPE and retina we imaged ex vivo eyes of mice with different genetic backgrounds. The brightest RPE images were obtained in Rpe65^−/− mice in response to 730 nm excitation (FIG. 17a). The brightly fluorescent granules correspond to enlarged retinosomes, which are a characteristic feature of the RPE only in Rpe65^−/− mice due to blockade of 11cisretinol synthesis. […] We also imaged and counted the neuronal nuclei in the ganglion cell layer at 0.6 mm eccentricity and found 2,500 nuclei per mm2 (FIG. 17d), which is smaller than previously reported about 7,000 per mm2 of combined ganglion and displaced amacrine cells in stained retina. This difference arises from: a) nuclei are free of fluorophores, and are only visible as dark structures against brighter cell bodies, which can lead to obstruction of the nuclei by axon bundles; b) not all the cell nuclei were at the same imaging depth; and c) the estimates of the area could be off by 40% because they were determined by comparing measurements of optic disk in en face TPM images to histological sections. […]

Structure (SMILES)	RPE autofluorescence appearance by TPM (Abca4^−/−Rdh8^−/− mice; 730 nm and 850 nm excitation, day 7 after light, Ret-NH2 1 mg oral gavage, Apo 1 mg i.p.)	light-induced retinal degeneration (retinal histology) (Abca4^−/−Rdh8^−/− mice)	regeneration of visual chromophore in the eye (retinoid cycle)	accumulation of fluorescent granules in the RPE [1]	effect on atRAL-induced cell death rate (LDH assay) ([2]; Dko retinas)	protection of retinal morphology against atRAL-induced damage [3]	prevention of atRAL-induced photoreceptor apoptosis (TUNEL staining) ([3]; listed as Ret-NH2)	content of fluorescent retinyl esters in the eye [4]	visibility of retinosomes in RPE [5]	prevention of atRAL-induced photoreceptor apoptosis (TUNEL staining) ([3]; listed as APO)	retinal morphology (ONL) after incubation with atRAL ([2]; 30 μM atRAL with vehicle, Dko retinas)	retinal cell death (LDH assay) caused by atRAL ([2]; 30 μM atRAL, Dko retinal culture supernatants)
CC1=C(/C=C/C(C)=C/C=C/C(C)=C/CN)C(C)(C)CCC1 [retinylamine]	increased fluorescence of retinosomes	can be prevented; also recorded: conferred protection	markedly reduced	no deposits; also recorded: protects RPE	reduced	protected the ONL and INL	protected the ONL and INL	increases	more clearly visible	–	–	–
COc1cc(C(C)=O)ccc1O [apocynin]	–	can be prevented; also recorded: conferred protection	–	–	reduced	protected the ONL and INL	–	–	–	protected the ONL and INL	–	–
CC1=C(/C=C/C(C)=C/C=C/C(C)=C/C=O)C(C)(C)CCC1 [atRAL, all-trans-retinaldehyde]	–	–	–	–	–	–	–	–	–	–	markedly disrupted	caused retinal cell death
